Test results reported in ChEMBL document CHEMBL4316628, “Bioactivity-guided identification of flavonoids with cholinesterase and β-amyloid peptide aggregation inhibitory effects from the seeds of Millettia pachycarpa” (Bioorg Med Chem Lett, 2019).
Calls of active or inactive are those of the source. The rule behind the calls is not given here.

Tests used:
Acetylcholinesterase [1] = biological target: T1, Acetylcholinesterase (Homo sapiens, UniProt P22303); assay: Inhibition of AChE (unknown origin) using acetylthiocholine iodide as substrate by spectrophotometry based Ellman's method
Cholinesterase [2] = biological target: T2, Cholinesterase (Homo sapiens, UniProt P06276); assay: Inhibition of BChE (unknown origin) using butyrylthiocholine iodide as substrate by spectrophotometry based Ellman's method
Cholinesterase [3] = biological target: T2, Cholinesterase; assay: Inhibition of BChE (unknown origin) at 20 ug/mL using butyrylthiocholine iodide as substrate by spectrophotometry based Ellman's method
[4] = biological target: Amyloid-beta precursor protein (Homo sapiens) (UniProt P05067); assay: Inhibition of amyloid beta (1 to 42) (unknown origin) self-aggregation at 20 uM incubated for 48 hrs by thioflavin-T fluorescence method
[5] = biological target: Amyloid-beta precursor protein (Homo sapiens) (UniProt P05067); assay: Inhibition of amyloid beta (1 to 42) (unknown origin) self-aggregation at 40 uM incubated for 48 hrs by thioflavin-T fluorescence method
[6] = biological target: Amyloid-beta precursor protein (Homo sapiens) (UniProt P05067); assay: Inhibition of amyloid beta (1 to 42) (unknown origin) self-aggregation at 80 uM incubated for 48 hrs by thioflavin-T fluorescence method
Cholinesterase [7] = biological target: T2, Cholinesterase; details: 100 ug/mL
Description: Inhibition of BChE (unknown origin) at 100 ug/mL using butyrylthiocholine iodide as substrate by spectrophotometry based Ellman's method

[8] = biological target: Amyloid-beta precursor protein (Homo sapiens) (UniProt P05067); assay: Inhibition of amyloid beta (1 to 42) (unknown origin) self-aggregation incubated for 48 hrs by thioflavin-T fluorescence method
Acetylcholinesterase [9] = biological target: T1, Acetylcholinesterase; assay: Binding affinity to AChE (unknown origin) assessed as reduction in intrinsic protein fluorescence at 25 degC by fluorescence spectrophotometry
Cholinesterase [10] = biological target: T2, Cholinesterase; assay: Binding affinity to BChE (unknown origin) assessed as reduction in intrinsic protein fluorescence at 25 degC by fluorescence spectrophotometry
Cholinesterase [11] = biological target: T2, Cholinesterase; assay: Mixed type inhibition of BChE (unknown origin) using butyrylthiocholine iodide as substrate by Ellman's method based Lineweaver-Burk plot analysis
Beta-secretase 1 = Beta-secretase 1 (Homo sapiens, UniProt P56817); assay: Inhibition of BACE1 (unknown origin) expressed in baculovirus-expression system using Rh-EVNLDAEFK-Quencher substrate by FRET assay
Acetylcholinesterase [12] = biological target: T1, Acetylcholinesterase; assay: Competitive type inhibition of AChE (unknown origin) using acetylthiocholine iodide as substrate by Ellman's method based Lineweaver-Burk plot analysis

Amyloid-beta precursor protein (Homo sapiens), sequence (P05067 whole entry): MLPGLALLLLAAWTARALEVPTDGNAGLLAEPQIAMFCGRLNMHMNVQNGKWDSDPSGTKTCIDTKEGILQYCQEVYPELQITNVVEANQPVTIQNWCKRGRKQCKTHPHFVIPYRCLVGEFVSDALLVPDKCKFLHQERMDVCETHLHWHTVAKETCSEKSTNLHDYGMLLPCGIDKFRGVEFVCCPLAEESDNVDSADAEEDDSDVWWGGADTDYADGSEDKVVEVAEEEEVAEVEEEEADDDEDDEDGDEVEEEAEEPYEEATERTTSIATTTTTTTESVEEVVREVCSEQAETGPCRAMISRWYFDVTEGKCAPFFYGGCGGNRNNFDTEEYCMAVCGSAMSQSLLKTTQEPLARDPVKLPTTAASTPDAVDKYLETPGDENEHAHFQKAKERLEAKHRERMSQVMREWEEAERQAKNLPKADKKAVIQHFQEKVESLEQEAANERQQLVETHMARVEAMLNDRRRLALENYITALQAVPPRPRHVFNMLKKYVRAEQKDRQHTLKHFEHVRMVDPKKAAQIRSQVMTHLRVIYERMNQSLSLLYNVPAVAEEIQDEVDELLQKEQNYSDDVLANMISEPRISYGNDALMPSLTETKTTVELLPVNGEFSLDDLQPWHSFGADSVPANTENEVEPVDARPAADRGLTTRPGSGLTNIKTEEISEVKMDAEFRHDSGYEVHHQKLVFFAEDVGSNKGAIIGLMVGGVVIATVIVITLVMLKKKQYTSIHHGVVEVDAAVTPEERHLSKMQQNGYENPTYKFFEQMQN
T2 sequence (P06276 whole entry): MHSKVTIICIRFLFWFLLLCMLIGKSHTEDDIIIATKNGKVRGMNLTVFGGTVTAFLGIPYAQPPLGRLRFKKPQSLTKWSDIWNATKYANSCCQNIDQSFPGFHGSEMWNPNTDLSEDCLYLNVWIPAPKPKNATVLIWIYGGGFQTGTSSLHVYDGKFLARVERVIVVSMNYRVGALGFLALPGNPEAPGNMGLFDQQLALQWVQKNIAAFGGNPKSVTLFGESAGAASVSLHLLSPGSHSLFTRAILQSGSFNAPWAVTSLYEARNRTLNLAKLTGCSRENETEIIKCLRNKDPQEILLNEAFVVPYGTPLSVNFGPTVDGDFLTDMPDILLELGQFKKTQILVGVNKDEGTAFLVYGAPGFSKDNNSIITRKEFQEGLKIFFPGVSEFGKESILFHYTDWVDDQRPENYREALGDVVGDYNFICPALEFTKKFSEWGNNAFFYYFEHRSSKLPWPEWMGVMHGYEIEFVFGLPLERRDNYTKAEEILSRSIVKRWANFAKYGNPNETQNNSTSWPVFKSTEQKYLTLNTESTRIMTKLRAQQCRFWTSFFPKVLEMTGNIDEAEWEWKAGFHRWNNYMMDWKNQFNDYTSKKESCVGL
T1 sequence (P22303 whole entry): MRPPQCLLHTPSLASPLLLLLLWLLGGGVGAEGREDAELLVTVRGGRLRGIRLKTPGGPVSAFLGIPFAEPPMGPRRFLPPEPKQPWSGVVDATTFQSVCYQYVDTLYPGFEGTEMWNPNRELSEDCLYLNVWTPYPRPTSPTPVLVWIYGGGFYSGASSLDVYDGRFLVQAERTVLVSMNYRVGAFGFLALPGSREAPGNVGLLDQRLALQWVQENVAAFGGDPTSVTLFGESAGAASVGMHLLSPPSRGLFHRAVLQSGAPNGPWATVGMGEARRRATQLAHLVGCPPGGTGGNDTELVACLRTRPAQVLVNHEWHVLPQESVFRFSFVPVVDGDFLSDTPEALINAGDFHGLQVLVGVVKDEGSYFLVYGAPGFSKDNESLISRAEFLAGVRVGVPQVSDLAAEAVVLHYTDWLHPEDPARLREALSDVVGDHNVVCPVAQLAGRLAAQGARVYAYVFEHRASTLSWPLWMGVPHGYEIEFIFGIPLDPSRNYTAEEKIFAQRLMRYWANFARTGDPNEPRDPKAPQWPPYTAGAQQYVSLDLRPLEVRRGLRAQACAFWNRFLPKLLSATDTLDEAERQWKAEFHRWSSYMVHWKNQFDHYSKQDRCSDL
Beta-secretase 1, sequence (P56817 whole entry): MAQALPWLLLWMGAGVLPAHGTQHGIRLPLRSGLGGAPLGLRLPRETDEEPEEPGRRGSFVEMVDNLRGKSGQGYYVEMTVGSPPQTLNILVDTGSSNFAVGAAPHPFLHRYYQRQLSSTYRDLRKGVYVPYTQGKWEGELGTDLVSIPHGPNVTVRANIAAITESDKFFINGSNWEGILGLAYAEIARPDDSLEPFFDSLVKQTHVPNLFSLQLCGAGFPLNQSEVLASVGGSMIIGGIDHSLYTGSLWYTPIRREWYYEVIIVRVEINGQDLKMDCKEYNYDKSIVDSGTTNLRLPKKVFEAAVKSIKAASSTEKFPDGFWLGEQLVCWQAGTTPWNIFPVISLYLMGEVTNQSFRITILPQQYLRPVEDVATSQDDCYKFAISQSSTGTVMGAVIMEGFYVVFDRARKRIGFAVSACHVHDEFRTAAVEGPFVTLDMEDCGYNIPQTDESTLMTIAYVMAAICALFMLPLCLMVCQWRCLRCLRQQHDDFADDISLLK

SMILES | IC50 (Cholinesterase [2]) | inhibition (Cholinesterase [3]) [%] | inhibition [4] | inhibition [5] | inhibition [6] | IC50 (Acetylcholinesterase [1]; read-out: IC50) [µM] | IC50 (Cholinesterase [2]; read-out: IC50) [µM] | other results
C=C(C)[C@H]1Cc2c(ccc3c2O[C@@H]2COc4cc(OC)c(OC)cc4[C@]2(O)C3=O)O1 [ROTENOLONE] | Not Active | 9.87 | – | – | – | – | – | IC50 (Acetylcholinesterase [1]): Not Active
COc1cc(/C=C/C(=O)CC(=O)/C=C/c2ccc(O)c(OC)c2)ccc1O | – | – | Active | Active | Active | – | – | –
COc1ccc(C2CC(=O)c3ccc4c(c3O2)C=CC(C)(C)O4)cc1 (centres undefined) | – | 24.7 | – | – | – | 91.1 | 225 | –
COc1cc2c(cc1OC)[C@]1(O)C(=O)c3ccc4c(c3O[C@@H]1CO2)C=CC(C)(C)O4 [TEPHROSIN] | Not Active | 16.2 | – | – | – | 127 | – | –
COc1ccc2c3c1O[C@H]1C[C@@H](O)C=C[C@@]31CCN(C)C2 | – | 94.6 | – | – | – | – | – | inhibition (Cholinesterase [7]): 94.6%
CC1(C)C=Cc2c(ccc(C(=O)/C=C/c3ccc(O)cc3)c2O)O1 | – | 86.5 | 53.7% | 65.7% | 73.3% | 17.1 | 5.68 | inhibition [8]: Dose-dependent effect; Activity (Acetylcholinesterase [9]): Dose-dependent effect; IC50 (Acetylcholinesterase [9]): 29.6 µM; Activity (Cholinesterase [10]): Dose-dependent effect; IC50 (Cholinesterase [10]): 2.57 µM; Ki (Cholinesterase [11]): 3.48 µM; IC50 (Beta-secretase 1): 9.8 µM; Ki (Acetylcholinesterase [12]): 7.39 µM
CC1(C)C=Cc2c(ccc3c2OC(c2ccc(O)cc2)CC3=O)O1 (centres undefined) | – | 91.9 | 50.9% | 63.5% | 73.5% | – | 11.5 | IC50 (Acetylcholinesterase [1]): Not Active; IC50 (Cholinesterase [10]): 3.57 µM; Ki (Cholinesterase [11]): 3.73 µM
COc1cc2c(cc1OC)[C@@H]1C(=O)c3ccc4c(c3O[C@@H]1CO2)C=CC(C)(C)O4 [DEGUELIN] | Not Active | 14.2 | – | – | – | 127 | – | –
COc1cc(OC)c(-c2coc3c4c(ccc3c2=O)OC(C)(C)C=C4)cc1OC | – | 68.5 | inactive | inactive | inactive | 122 | 21.8 | –
COc1ccc(/C=C/C(=O)c2ccc3c(c2O)C=CC(C)(C)O3)cc1 | – | 37 | – | – | – | 74.7 | 102 | –
COC1=CC(=O)C(OC)(OC)C=C1[C@@]1(O)C(=O)c2ccc3c(c2O[C@@H]1CO)C=CC(C)(C)O3 | Not Active | 17.1 | – | – | – | – | – | IC50 (Acetylcholinesterase [1]): Not Active
COc1ccc(-c2coc3c4c(ccc3c2=O)OC(C)(C)C=C4)cc1OC | – | 98.2 | inactive | inactive | inactive | 131 | 2.34 | IC50 (Cholinesterase [10]): 7.82 µM; Ki (Cholinesterase [11]): 0.92 µM
